In PubChem BioAssay (NCI):
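1) Cells in 96-well plates. 2) Compound, 48 h, 5 concentrations. 3) Linear interpolation between surrounding doses. 4) Unreached endpoint = highest concentration. At the GI50, growth is halved. TGI marks complete inhibition of growth.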

How the values were obtained:
Experiment in all cases: DTP human tumour cell line panel, 48 h
[1] = tested on: A498 renal
[2] = tested on: A549 NSCLC
[3] = tested on: ACHN renal
[4] = tested on: CAKI-1 renal
[5] = tested on: CCRF-CEM leukemia
[6] = tested on: COLO 205 colon
[7] = tested on: DLD-1 colon
[8] = tested on: DMS 114 small cell lung
[9] = tested on: EKVX NSCLC
[10] = tested on: HCT-116 colon
[11] = tested on: HCT-15 colon
[12] = tested on: HOP-92 NSCLC
[13] = tested on: HT29 colon
[14] = tested on: IGROV1 ovarian
[15] = tested on: K-562 leukemia
[16] = tested on: KM12 colon
[17] = tested on: LOX IMVI melanoma
[18] = tested on: LXFL 529 NSCLC
[19] = tested on: MALME-3M melanoma
[20] = tested on: MOLT-4 leukemia
[21] = tested on: NCI-H226 lung
[22] = tested on: NCI-H23 lung
[23] = tested on: NCI-H460 lung
[24] = tested on: NCI-H522 lung
[25] = tested on: OVCAR-4 ovarian
[26] = tested on: OVCAR-5 ovarian
[27] = tested on: OVCAR-8 ovarian
[28] = tested on: RPMI-8226 leukemia
[29] = tested on: RXF 393 renal
[30] = tested on: SF-268 CNS
[31] = tested on: SF-295 CNS
[32] = tested on: SF-539 CNS
[33] = tested on: SK-MEL-2 melanoma
[34] = tested on: SK-MEL-28 melanoma
[35] = tested on: SK-MEL-5 melanoma
[36] = tested on: SK-OV-3 ovarian
[37] = tested on: SN12C renal
[38] = tested on: SNB-19 CNS
[39] = tested on: SNB-78 CNS
[40] = tested on: SW-620 colon
[41] = tested on: U251 CNS
[42] = tested on: UACC-257 melanoma
[43] = tested on: UACC-62 melanoma
[44] = tested on: UO-31 renal
[45] = tested on: 786-0 renal
[46] = tested on: BT-549 breast
[47] = tested on: DU-145 prostate
[48] = tested on: HCC-2998 colon
[49] = tested on: HL-60(TB) leukemia
[50] = tested on: HOP-62 NSCLC
[51] = tested on: HS 578T breast
[52] = tested on: M14 melanoma
[53] = tested on: MCF7 breast
[54] = tested on: MDA-MB-231 breast
[55] = tested on: MDA-MB-435
[56] = tested on: MDA-N
[57] = tested on: NCI/ADR-RES ovarian
[58] = tested on: OVCAR-3 ovarian
[59] = tested on: PC-3 prostate
[60] = tested on: SNB-75 CNS
[61] = tested on: SR leukemia
[62] = tested on: T-47D breast
[63] = tested on: TK-10 renal

In the case of `COc1cc(/C=N/N=C(\N)NO)ccc1O`, the TGI [1] is reported as > 100 µM, the TGI [2] is reported as > 100 µM and the TGI [3] is reported as > 100 µM. The TGI [4] was > 100 µM, the TGI [5] was > 100 µM and the TGI [6] was > 100 µM. For the same compound, the TGI [7] was > 100 µM, the TGI [8] was > 100 µM and the TGI [9] was > 100 µM. The TGI [10] was > 100 µM, the TGI [11] was > 100 µM and the TGI [12] was > 100 µM. The TGI [13] was > 100 µM, the TGI [14] was > 100 µM and the TGI [15] was > 100 µM. For the same compound, the TGI [16] was > 100 µM, the TGI [17] was > 100 µM and the TGI [18] was > 100 µM. The TGI [19] was > 100 µM, the TGI [20] was > 100 µM and the TGI [21] was 85.9 µM. For the same compound, the TGI [22] was > 100 µM, the TGI [23] was > 100 µM and the TGI [24] was > 100 µM. For the same compound, the TGI [25] was > 100 µM, the TGI [26] was 90.3 µM and the TGI [27] was > 100 µM. The TGI [28] was > 100 µM, the TGI [29] was > 100 µM and the TGI [30] was > 100 µM. For the same compound, the TGI [31] was > 100 µM, the TGI [32] was > 100 µM and the TGI [33] was > 100 µM. For the same compound, the TGI [34] was > 100 µM, the TGI [35] was > 100 µM and the TGI [36] was > 100 µM. For the same compound, the TGI [37] was > 100 µM, the TGI [38] was > 100 µM and the TGI [39] was > 100 µM. For the same compound, the TGI [40] was > 100 µM, the TGI [41] was > 100 µM and the TGI [42] was > 100 µM. For the same compound, the TGI [43] was > 100 µM and the TGI [44] was > 100 µM.
In the case of `C[C@@H](Oc1ccc(Oc2cnc3ccc(Cl)cc3n2)cc1)C(=O)O`, the TGI [45] is reported as > 100 µM, the TGI [1] is reported as > 100 µM and the TGI [2] is reported as > 100 µM. The TGI [3] was > 100 µM, the TGI [46] was > 100 µM and the TGI [4] was > 100 µM. For the same compound, the TGI [5] was > 100 µM, the TGI [6] was > 100 µM and the TGI [47] was > 100 µM. For the same compound, the TGI [9] was > 100 µM, the TGI [48] was > 100 µM and the TGI [10] was > 100 µM. For the same compound, the TGI [11] was > 100 µM, the TGI [49] was > 100 µM and the GI50 [50] was > 85.3 µM. For the same compound, the TGI [50] was > 100 µM, the TGI [12] was > 100 µM and the GI50 [51] was 69.6 µM. The TGI [51] was > 100 µM, the TGI [13] was > 100 µM and the TGI [14] was > 100 µM. For the same compound, the TGI [15] was > 100 µM, the TGI [16] was > 100 µM and the TGI [17] was > 100 µM. For the same compound, the TGI [52] was > 100 µM, the TGI [19] was > 100 µM and the GI50 [53] was 18.3 µM. The TGI [53] was > 100 µM, the TGI [54] was > 100 µM and the TGI [55] was > 100 µM. The TGI [56] was > 100 µM, the GI50 [20] was > 23.7 µM and the TGI [20] was > 100 µM. The GI50 [21] was 67.1 µM, the TGI [21] was > 100 µM and the TGI [22] was > 100 µM. The TGI [23] was > 100 µM, the TGI [24] was > 100 µM and the TGI [57] was > 100 µM. The TGI [58] was > 100 µM, the TGI [25] was > 100 µM and the TGI [26] was > 100 µM. For the same compound, the TGI [27] was > 100 µM, the TGI [59] was > 100 µM and the TGI [28] was > 100 µM. For the same compound, the GI50 [29] was > 30.5 µM, the TGI [29] was > 100 µM and the TGI [30] was > 100 µM. For the same compound, the TGI [31] was > 100 µM, the GI50 [32] was > 87.9 µM and the TGI [32] was > 100 µM. For the same compound, the TGI [33] was > 100 µM, the TGI [34] was > 100 µM and the GI50 [35] was > 82.1 µM. The TGI [35] was > 100 µM, the TGI [36] was > 100 µM and the TGI [37] was > 100 µM. For the same compound, the TGI [38] was > 100 µM, the TGI [60] was > 100 µM and the GI50 [61] was > 24.3 µM. For the same compound, the TGI [61] was > 100 µM, the TGI [40] was > 100 µM and the TGI [62] was > 100 µM. For the same compound, the TGI [63] was > 100 µM, the TGI [41] was > 100 µM and the TGI [42] was > 100 µM. For the same compound, the GI50 [43] was 46.4 µM, the TGI [43] was > 100 µM and the TGI [44] was > 100 µM.
